The subject of this experiment is serum cholesterol. The experiment in a line: Effect on serum cholesterol levels in rats, daily subcutaneous injection (Examples 41, 42). It counts as in vivo, rat (male, Sprague-Dawley). To be noted: day 3. As to the method: Male rats of the Sprague-Dawley strain were fed Purina rat chow ad libidum. The rats were maintained on a light (7 A.M.-6 P.M.) -dark (6 P.M.-7 A.M.) cycle throughout the study and for a period of at least 4 days prior to the initiation of the study.
3β-Hexadecanoyloxy-5α-cholest-8(14)-en-15-one (5 mg; dissolved in 0.25 ml of triolein), hereafter referred to as the "palmitate ester", or 3β-hemisuccinoyloxy-5α-cholest-8(14)-en-15-one (5 mg; suspended in 0.25 ml of triolein through the use of a tight-fitting all-glass homogenizer), hereafter referred to as the "hemisuccinate ester", were administered subcutaneously once a day at about 12 P.M. to each of eight and six rats, respectively. Control animals (8) received daily injections of triolein (0.25 ml).
Blood samples were taken from the rats periodically and the serum cholesterol concentrations measured, in duplicate, by the method of Abell et al., J. Biol. Chem., Vol. 195, pp. 357-366 ([…]).
Following generally the procedure described in Example 41, 3β-Ethoxy-14α-ethyl-5α-cholest-7-en-15-one (5 mg) in triolein (0.25 ml) was administered subcutaneously once a day to each of eight rats. Control animals (8) received daily injections of triolein (0.25 ml).
Similarly, 5α-cholest-8(14)-en-3β-ol-15-one (2mg) in (0.2 ml) olive oil or 5.0 mg in 0.5 ml of olive oil) was administered subcutaneously once a day to each of a group of rats. The 2 mg dose was administered to 12 rats, while a like number of rats received daily injections of 0.2 ml olive oil. 5 mg doses were administered to each of 6 rats, while 6 control animals received daily injections of 0.5 ml olive oil. The rats used in this study initially weighed between 110 and 190 grams.

[1] abbreviates: 2 mg s.c. once a day in 0.2 ml olive oil.
The mark [2] stands for this setting: 5 mg s.c. once a day in 0.5 ml olive oil.

As for `CC(C)CCC[C@@H](C)[C@H]1CC(=O)C2=C3CC[C@H]4C[C@@H](O)CC[C@]4(C)[C@H]3CC[C@@]21C` [5α-Cholest-8(14)-en-3β-ol-15-one, 5α-cholest-8(14)-en-3β-ol-15-one], under setting [1], the “% Reduction (relative to olive oil-treated rats)” value was found to be 12% and the “Serum Cholesterol (Mean ± S.E.M.)” value is reported as 64.5 ± 2.5 mg per 100 ml. For the same compound, under setting [2], the “% Reduction (relative to olive oil-treated rats)” value was 22% and the “Serum Cholesterol (Mean ± S.E.M.)” value worked out at 59.6 ± 2.2 mg per 100 ml.

The values are drawn from patent US4202891A, “15-Oxygenated sterol compounds and the use of such compounds to inhibit the biosynthesis of sterols” (priority 1977, dated 1980).
